From ChEMBL document CHEMBL5149985, “Discovery of cytotoxic natural products from Red Sea sponges: Structure and synthesis” (Eur J Med Chem, 2021)

How the values were obtained:
MDA-MB-231 [1] = test: Anticancer activity against human MDA-MB-231 assessed as inhibition of cell growth incubated for 48 hrs by SRB assay; assay type: functional, cell-based; conditions: MDA-MB-231, 48 h
MDA-MB-231 [2] = test: Anticancer activity against human MDA-MB-231 cells assessed as inhibition of cell growth; assay type: functional, cell-based

Q: For COC1=C(Br)[C@@H]2OC(=O)C[C@]2(O)C=C1Br, which IC50 (MDA-MB-231 [1]) is on record?
A: The IC50 was 18 µM.

Q: What about the IC50 (MDA-MB-231 [2]) of the same compound?
A: Its IC50 is 18 µM.
